Source: patent US12404268B2, “2-heteroaryl aminoquinazolinone derivative” (Sumitomo Pharma Co., Ltd., priority 2020, dated 2025)
Values belong to the compound of their own block, whether it stands above or below them.

Columns and labels:
[1] = system: neurons induced to differentiate from SCN1A gene deficient human iPS cells; experiment: Test for measuring hyperexcitation suppression activity (spontaneous calcium oscillation frequency); assay type: cell-based; conditions: Neuron; for inhibition at 1 µM / inhibition at 0.1 µM / inhibition at 10 µM: Homo sapiens, read-out: inhibition rate; for IC50: SCN1A gene deficient human iPS cell-derived neurons, FLIPR Calcium 6, FDSS7000EX, read-out: IC50 (50% inhibitory concentration, frequency of spontaneous calcium oscillation)
How it was run: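 SCN1A-deficient iPS-derived neurons used from day 60 of differentiation, loaded 30 min with Calcium 6 probe. Compounds at final 0.1–100 μM; spontaneous calcium oscillation frequency recorded on FDSS7000EX, with the last 2 of 8 min post-addition expressed relative to the 2 min baseline.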

[2] = system: male Slc:ddY mice (pentetrazol-induced clonic seizure); experiment: Model subcutaneously injected with pentetrazol (minimum seizure model, scPTZ); assay type: in vivo, mouse; conditions: 85 mg/kg pentetrazol s.c. 1 hour after oral dosing, observed 30 minutes
Experimental: Evaluation of Model Subcutaneously Injected with Pentetrazol (Minimum Seizure Model, scPTZ)
This test evaluates the antiseizure effect of a medicament. The animal model used in this test is a phenotype of generalized absence seizure or myoclonic seizure. The test compound was orally administered to male Slc:ddY mice (group of five, body weight: 20 to 30 g), and 85 mg of pentetrazol/kg was subcutaneously administered 1 hour later. The presence/absence of expression of clonic seizure during 30 minutes was then observed. The dose at which […] (ED50) was calculated. 0.5% methylcellulose solution was administered for the control.

male Slc:ddy mice = experiment: Rotarod evaluation (motor coordination); assay type: in vivo, mouse; conditions: rotarod 15 rpm, 50 minutes after oral dosing, 180 seconds
Experimental: The test evaluates the effect of suppressing the ability of motor coordination of a medicament. Male Slc:ddy mice (body weight: 20 to 30 g) were trained to walk for 5 minutes with a rotarod apparatus (apparatus for rotating a cylindrical bar with a 4 cm diameter, 12 rpm) on the day of the test. A test compound was orally administered to a group of 5 mice. […] Animals that fell off within 180 seconds due to incoordination were counted. […] 0.5% methylcellulose solution was administered for the control.

[3] = system: SCN1A loss-of-function genetic mutation mice (epileptic spike); experiment: Evaluation of epileptic spike using SCN1A-mutated animal; assay type: in vivo, mouse; conditions: F1 SCN1A-mutated mice; spike frequency over 3 hours before and after administration
Experimental: Evaluation of Epileptic Spike Using SCN1A-Mutated Animal
This test evaluates the inhibitory effect of a medicament on epileptic spike expressed with an SCN1A loss-of-function genetic mutation.
Febrile seizure was induced in the SCN1A-mutated mice (6 to 10 week old) described above from increasing the body temperature by placing and continuously incubating the mice in a plastic chamber whose internal temperature was increased by incubation using a warm bath of about 43° C. After two weeks from inducing febrile seizure, a head mount (cat #8201-SS, Pinnacle Technology) was mounted on the head of the mice. Two weeks after mounting the head mount, the F1 SCN1A loss-of-function genetic mutation mice (25 to 32 g) were connected to a seizure EEG recording system (Pinnacle Technology), and the test compound was administered. The epileptic spike frequency over 3 hours before and after administration of the compound was measured, and the dose at which epileptic spike frequency is suppressed to 50% after the administration (ED50) was calculated.

[4] = system: male Slc:ddY mice (electroshock-induced tonic extensor seizure); experiment: Maximal electroshock seizure (MES) model; assay type: in vivo, mouse; conditions: corneal stimulation 60 Hz, 50 mA, 0.2 seconds 1 hour after oral dosing
Experimental: Evaluation of Maximal Electroshock Seizure (MES) Model
This test evaluates the antiseizure effect of a medicament in the same manner as Test Example 3. The animal model used in this test is a phenotype of generalized tonic-clonic seizure and secondary generalized partial seizure. The test compound was orally administered to male Slc:ddY mice (group of five, body weight: 20 to 30 g), and electrical stimulation (60 Hz, 50 mA, 0.2 seconds) was applied through the cornea 1 hour later. Suppression of induced expression of tonic extensor seizure of the rear limb was observed. The dose at which […] (ED50) was calculated. 0.5% methylcellulose solution was administered for the control.

SMILES: N#Cc1ccc2nc(Nc3cccnc3)n(-c3ccccc3)c(=O)c2c1 [Example 3, 4-oxo-3-phenyl-2-(pyridin-3-ylamino)-3,4-dihydroquinazoline-6-carbonitrile]
- inhibition at 1 µM [1]: 97%
- ED50 (clonic seizure) [2]: 0.74 mg/kg, p.o.
- TD50 (dosage at which 50% of animals fall off) (male Slc:ddy mice): 2.0 mg/kg, p.o.
- ED50 (dose at which epileptic spike frequency is suppressed to 50%) [3]: 0.66 mg/kg, p.o.

SMILES: O=c1c2cc(F)ccc2nc(Nc2cccnc2)n1-c1ccccc1 [Example 12, 6-fluoro-3-phenyl-2-(pyridin-3-ylamino)quinazolin-4(3H)-one]
- IC50 [1]: 0.2 µM
- ED50 (clonic seizure) [2]: 0.25 mg/kg, p.o.
- TD50 (dosage at which 50% of animals fall off) (male Slc:ddy mice): 1.8 mg/kg, p.o.
- ED50 (tonic extensor seizure) [4]: 0.56 mg/kg, p.o.
- ED50 (dose at which epileptic spike frequency is suppressed to 50%) [3]: 0.18 mg/kg, p.o.

SMILES: O=c1c2ccccc2nc(Nc2cccnc2)n1-c1ccccc1 [Example 14, 3-phenyl-2-(pyridin-3-ylamino)quinazolin-4(3H)-one]
- IC50 [1]: 1.8 µM
- ED50 (clonic seizure) [2]: 4.17 mg/kg, p.o.
- TD50 (dosage at which 50% of animals fall off) (male Slc:ddy mice): 7.38 mg/kg, p.o.
- ED50 (dose at which epileptic spike frequency is suppressed to 50%) [3]: 5.83 mg/kg, p.o.

SMILES: O=c1c2cc(F)cc(F)c2nc(Nc2cccnc2)n1-c1ccccc1 [Example 32, 6,8-difluoro-3-phenyl-2-(pyridin-3-ylamino)quinazolin-4(3H)-one]
- inhibition at 1 µM [1]: 80%
- ED50 (clonic seizure) [2]: 4.17 mg/kg, p.o.
- TD50 (dosage at which 50% of animals fall off) (male Slc:ddy mice): 8.83 mg/kg, p.o.
- ED50 (dose at which epileptic spike frequency is suppressed to 50%) [3]: 1.48 mg/kg, p.o.

SMILES: O=c1c2cc(F)ccc2nc(Nc2cncc(F)c2)n1-c1ccccc1 [Example 40, 6-fluoro-2-((5-fluoropyridin-3-yl)amino)-3-phenylquinazolin-4(3H)-one]
- inhibition at 1 µM [1]: 100%
- ED50 (clonic seizure) [2]: 0.27 mg/kg, p.o.
- TD50 (dosage at which 50% of animals fall off) (male Slc:ddy mice): 1.8 mg/kg, p.o.
- ED50 (tonic extensor seizure) [4]: 0.56 mg/kg, p.o.
- ED50 (dose at which epileptic spike frequency is suppressed to 50%) [3]: 0.12 mg/kg, p.o.

SMILES: Cc1ccccc1-n1c(Nc2cccnc2)nc2ccc(C#N)cc2c1=O [Example 109, 4-oxo-2-(pyridin-3-ylamino)-3-(o-tolyl)-3,4-dihydroquinazoline-6-carbonitrile]
- inhibition at 0.1 µM [1]: 59%
- ED50 (clonic seizure) [2]: 0.25 mg/kg, p.o.
- TD50 (dosage at which 50% of animals fall off) (male Slc:ddy mice): 2.0 mg/kg, p.o.
- ED50 (dose at which epileptic spike frequency is suppressed to 50%) [3]: 0.19 mg/kg, p.o.

SMILES: Cc1ccccc1-n1c(Nc2cncc(F)c2)nc2ccc(C#N)cc2c1=O [Example 114, 2-((5-fluoropyridin-3-yl)amino)-4-oxo-3-(o-tolyl)-3,4-dihydroquinazoline-6-carbonitrile]
- inhibition at 0.1 µM [1]: 55%
- ED50 (clonic seizure) [2]: 0.065 mg/kg, p.o.
- TD50 (dosage at which 50% of animals fall off) (male Slc:ddy mice): 0.2 mg/kg, p.o.
- ED50 (dose at which epileptic spike frequency is suppressed to 50%) [3]: 0.044 mg/kg, p.o.

- IC50 [1]: > 100 µM
SMILES: Cc1ccccc1-n1c(Nc2cccnc2)nc2ccc(S(C)(=O)=O)cc2c1=O [Example 214]

- IC50 [1]: > 10 µM
SMILES: CN(C)c1cncc(-n2c(Nc3cccnc3)nc3ccc(F)cc3c2=O)c1 [Example 215]

- IC50 [1]: > 100 µM
SMILES: CN(C)c1cncc(Nc2nc3ccc(F)cc3c(=O)n2-c2ccccc2)c1 [Example 216]

- IC50 [1]: > 10 µM
SMILES: O=c1c2cc(Cl)ccc2nc(Nc2cn[nH]c2)n1-c1ccccc1 [Example 217]

- IC50 [1]: > 10 µM
SMILES: COc1cncc(Nc2nc3ccc(Cl)cc3c(=O)n2-c2ccccc2)c1 [Example 218]

- IC50 [1]: > 100 µM
SMILES: O=c1c2cccc(Cl)c2nc(Nc2cccnc2)n1-c1ccccc1 [Example 219]

- IC50 [1]: > 10 µM
SMILES: COc1cc2nc(Nc3cccc4ncccc34)n(C)c(=O)c2cc1OC [Example 220]

- IC50 [1]: > 10 µM
SMILES: NC(=O)c1ccc(Nc2nc3ccc(Cl)cc3c(=O)n2-c2ccccc2)nc1 [Example 221]

- IC50 [1]: > 100 µM
SMILES: O=c1c2ccc(F)cc2nc(Nc2cccnc2)n1-c1ccccc1 [Example 222]

- IC50 [1]: > 100 µM
SMILES: Cc1cccc2nc(Nc3cccnc3)n(-c3ccccc3)c(=O)c12 [Example 223]

- IC50 [1]: > 100 µM
SMILES: Cc1cccc2c(=O)n(-c3ccccc3)c(Nc3cccnc3)nc12 [Example 224]

- IC50 [1]: > 100 µM
SMILES: COc1ccc2c(=O)n(-c3ccccc3)c(Nc3cccnc3)nc2c1 [Example 225]

- IC50 [1]: > 100 µM
SMILES: O=c1c2ccc(F)cc2nc(Nc2cncc(F)c2)n1-c1ccccc1 [Example 226]

- IC50 [1]: > 100 µM
SMILES: COc1cc(Nc2nc3ccc(F)cc3c(=O)n2-c2ccccc2)ccn1 [Example 227]

- IC50 [1]: > 10 µM
SMILES: O=c1c2cc(Cl)ccc2nc(Nc2nnco2)n1-c1ccccc1 [Example 228]

SMILES: O=c1c2cc(Cl)ccc2nc(Nc2nncs2)n1-c1ccccc1 [Example 229]
- inhibition at 10 µM [1]: 5%

SMILES: O=c1c2cc(Cl)ccc2nc(Nc2ncns2)n1-c1ccccc1 [Example 230]
- inhibition at 10 µM [1]: 2%

- IC50 [1]: > 10 µM
SMILES: Cn1cnc(Nc2nc3ccccc3c(=O)n2-c2ccccc2)c1 [Example 231]

SMILES: O=c1c2ccccc2nc(Nc2ccon2)n1-c1ccccc1 [Example 232]
- inhibition at 10 µM [1]: 73%
